Laboratory results published in US8633161B2, “Therapeutic agents for the treatment of leukemia” (The Ohio State University Research Foundation, priority 2005, dated 2014).

Key:
PP2A = molecular target: T1, PP2A (Mus musculus, UniProt P63330); assay: PP2A IP phosphatase assay on lysates of treated cells; type: cell-based; conditions: FTY720 2.5 μM, BCR/ABL-transformed cell lines
T1 construct: endogenous in cells; host or cells: 32Dc13, 32D-BCR/ABL, 32D-BCR/ABL-T315I, 32D-p210 Y253H, BaF3-p210 T315I, K562, primary CML-BC CD34+ and NBM CD34+ cells
Procedure: PP2A phosphatase assays were carried out using the PP2A IP phosphatase assay kit (Upstate). Briefly, protein lysates (50 μg) in 100 μl of 20 mM HEPES (pH 7.0)/100 mM NaCl, 5 μg of PP2Ac antibody (Upstate), and 25 μl of Protein A-agarose were added to 400 μl of 50 mM Tris (pH 7.0)/100 mM CaCl2, and IPs were carried out at 4° C. for 2 hr. IPs were washed and used in the phosphatase reaction according to the manufacturer's protocol. Specificity of the PP2A assay was assessed by titration with okadaic acid and by ascertaining the absence of PP1a in the PP2A immunoprecipitates (Figure S2A). As internal control, the amount of immunoprecipitated PP2A was also monitored by anti-PP2Ac Western blots (Figure S2B).

[1] = tested on: T315I BCR/ABL-transduced 32Dc13 cells; type: in vivo
Procedure: (§1) We obtained FTY720 synthesized using previously published methods (see Budde, K., et al., First human trial of FTY720, a novel immunomodulator, in stable renal transplant patients. J Am Soc Nephrol, (2002) 13:1073-83). Cells in liquid culture and in methylcellulose colony assays were cultured in the presence of 2.5 μM FTY720. SCID mice were i.v. injected with 5×10^5 T315I BCR/ABL-transduced 32Dc13 cells and levels of BCR/ABL in the peripheral blood were assessed by nested reverse transcriptase PCR. Upon establishment of a leukemia-like disease, mice were i.p. injected daily with FTY720 (250 μg/mouse/day). The disease process was monitored weekly by nested reverse transcriptase PCR. Apoptosis was assessed by AnnexinV/PI staining on untreated vs. treated cells.

[2] = tested on: primary CML-BC, p210-BCR/ABL and p190-BCR/ABL expressing cell lines; assay: FTY720 in vitro: proliferation, clonogenic potential and apoptosis of BCR/ABL-expressing cells; type: cell-based; conditions: 2.5 μM FTY720, imatinib-sensitive and -resistant p210 and p190 cell lines
From the text: We studied the in vitro effect of FTY720 and derivative compounds on proliferation rate, clonogenic potential, and apoptosis in imatinib-sensitive and -resistant p210-BCR/ABL-expressing cells and p190-BCR/ABL-expressing cells. We then investigated the in vivo antileukemic potential of FTY720 in a mouse-model of imatinib-resistant CML-BC,
as §1

BCR/ABL = assay: Western blot of BCR/ABL activity (phosphotyrosine) and expression; type: cell-based; conditions: upon treatment with FTY720 2.5 μM
Procedure: Cells (10^7) were lysed in 100 μl of RIPA buffer (150 mM NaCl, 1% NP-40, 0.1% SDS, 50 mM Tris [pH 8.0]) supplemented with 1 mM PMSF, 25 μg/ml aprotinin, 10 μg/ml leupeptin, 100 μg/ml pepstatin A, 5 mM benzamidine, 1 mM Na3VO4, 50 mM NaF, 10 mM β-glycerol-phosphate. After incubation on ice (30 min), lysates were clarified (12,000×g, 15 min, 4° C.), denatured, and subjected to SDS-PAGE and Western blot (Iervolino et al., 2002). The antibodies used were goat polyclonal anti-SET(I2PP2A), -pp32(I1PP2A), and -hnRNP A1 and rabbit polyclonal anti-SHP-1 (Santa Cruz Biotechnology); monoclonal anti-Abl (Ab-3), -c-myc (Ab-2), -phosphotyrosine PY20 (Ab-4), and -pBAD^S112 (Ab-1) (EMD); monoclonal anti-hnRNP A1 (9H10) (G. Dreyfuss, University of Pennsylvania, Philadelphia, Pa.); monoclonal anti-GRB2 and -Rb (BD TransLab Inc.); monoclonal anti-HA (Covance); monoclonal anti-PP2Ac, clone 1D6 (Upstate Inc.); monoclonal anti-FLAG, clone M2 (Sigma); monoclonal anti-pERK^T202/Y204 and rabbit polyclonal anti-pAKT^T308, pSTAT5^Y694, -pJak2^Y1007/1008, -Jak2, -BAD, -Akt, and -ERK1/2 (Cell Signaling Technology Inc.); monoclonal anti-STATS (Invitrogen); rabbit monoclonal anti-pPP2A^Y307 (Epitomics); rabbit polyclonal anti-PR65/A (Calbiochem). IPs were carried out in 20 mM HEPES (pH 7.0), 150 mM NaCl, and 0.2% NP-40 supplemented with protease and phosphatase inhibitors. Lysates were precleared and immunoprecipitated with Ab-coated beads for 3 hr at 4° C. After washings, IPs were subjected to SDS-PAGE and Western blot.

Akt = assay: Western blot of phosphorylated and total Akt; type: cell-based; conditions: FTY720-treated 32D-BCR/ABL cells
[3] = tested on: untransduced 32Dc13 cells and primary normal bone marrow cells; assay: FTY720 on cells not expressing the oncogene; type: cell-based; conditions: untransduced 32Dc13 cells and primary normal bone marrow cells from healthy donors; FTY720 2.5 μM
Procedure: as §1

For `CCCCCCCCc1ccc(CCC(N)(CO)CO)cc1` [FTY720], the “expression of PP2A protein levels” value (PP2A) was “without increased expression”, the PP2A activity (PP2A; prior to induction of apoptosis) was “induces” and the mice alive ([1]; FTY720 250 μg/mouse/day i.p., after 20 weeks of treatment) was “more than 50%”. For the same compound, the signs of toxicity ([1]; control group that received only the drug) was “no signs of toxicity”, the “growth, apoptosis and clonogenic potential” value [2] was “significant growth inhibition, apoptosis and impaired clonogenic potential” and the BCR/ABL activity (BCR/ABL) was “inactivated”. The Akt phosphorylation/activity (Akt) was “Dephosphorylation and inactivation” and the “inhibitory effect on cells not expressing the oncogene” value [3] was “no effect was detected”.
